According to the NIST ThermoML archive (doi:10.1021/acs.jced.5b00251):
± gives the expanded uncertainty stated by the source.

Experiment: refractive index (other wavelength) (dimensionless); xn = mol fraction of the nth substance listed
Settings: 101 kPa, Liquid, Standard Abbe refractometry

Compound: c1ccc2c(c1)CCCC2 [1,2,3,4-tetrahydronaphthalene] + CCCCCCCCCCCC
- refractive index (308.15 K, Wavelength=436.1 nm, x1 = 0.1014): 1.43455 ± 0.00073
- refractive index (308.15 K, Wavelength=436.1 nm, x1 = 0.2024): 1.44495 ± 0.00073
- refractive index (308.15 K, Wavelength=436.1 nm, x1 = 0.3032): 1.45589 ± 0.00075
- refractive index (308.15 K, Wavelength=436.1 nm, x1 = 0.4036): 1.46783 ± 0.00078
- refractive index (308.15 K, Wavelength=436.1 nm, x1 = 0.5038): 1.4805 ± 0.00075
- refractive index (308.15 K, Wavelength=436.1 nm, x1 = 0.6036): 1.49371 ± 0.00077
- refractive index (308.15 K, Wavelength=436.1 nm, x1 = 0.7032): 1.50749 ± 0.00076
- refractive index (308.15 K, Wavelength=436.1 nm, x1 = 0.8024): 1.52185 ± 0.00078
- refractive index (308.15 K, Wavelength=436.1 nm, x1 = 0.9014): 1.538 ± 0.00077
- refractive index (308.15 K, Wavelength=513.9 nm, x1 = 0.1014): 1.42811 ± 0.00072
- refractive index (308.15 K, Wavelength=513.9 nm, x1 = 0.2024): 1.43794 ± 0.00074
- refractive index (308.15 K, Wavelength=513.9 nm, x1 = 0.3032): 1.44864 ± 0.00074
- refractive index (308.15 K, Wavelength=513.9 nm, x1 = 0.4036): 1.45985 ± 0.00073
- refractive index (308.15 K, Wavelength=513.9 nm, x1 = 0.5038): 1.47118 ± 0.00075
- refractive index (308.15 K, Wavelength=513.9 nm, x1 = 0.6036): 1.48392 ± 0.00074
- refractive index (308.15 K, Wavelength=513.9 nm, x1 = 0.7032): 1.49684 ± 0.00075
- refractive index (308.15 K, Wavelength=513.9 nm, x1 = 0.8024): 1.51075 ± 0.00076
- refractive index (308.15 K, Wavelength=513.9 nm, x1 = 0.9014): 1.52559 ± 0.00075
- refractive index (308.15 K, Wavelength=589.3 nm, x1 = 0.1014): 1.4245 ± 0.00071
- refractive index (308.15 K, Wavelength=589.3 nm, x1 = 0.2024): 1.434 ± 0.00073
- refractive index (308.15 K, Wavelength=589.3 nm, x1 = 0.3032): 1.44408 ± 0.00074
- refractive index (308.15 K, Wavelength=589.3 nm, x1 = 0.4036): 1.45488 ± 0.00075
- refractive index (308.15 K, Wavelength=589.3 nm, x1 = 0.5038): 1.46618 ± 0.00074
- refractive index (308.15 K, Wavelength=589.3 nm, x1 = 0.6036): 1.47848 ± 0.00073
- refractive index (308.15 K, Wavelength=589.3 nm, x1 = 0.7032): 1.49085 ± 0.00073
- refractive index (308.15 K, Wavelength=589.3 nm, x1 = 0.8024): 1.50425 ± 0.00077
- refractive index (308.15 K, Wavelength=589.3 nm, x1 = 0.9014): 1.51872 ± 0.00074
- refractive index (308.15 K, Wavelength=633.2 nm, x1 = 0.1014): 1.42297 ± 0.00072
- refractive index (308.15 K, Wavelength=633.2 nm, x1 = 0.2024): 1.43234 ± 0.00072
- refractive index (308.15 K, Wavelength=633.2 nm, x1 = 0.3032): 1.44222 ± 0.00073
- refractive index (308.15 K, Wavelength=633.2 nm, x1 = 0.4036): 1.45318 ± 0.00074
- refractive index (308.15 K, Wavelength=633.2 nm, x1 = 0.5038): 1.46436 ± 0.00075
- refractive index (308.15 K, Wavelength=633.2 nm, x1 = 0.6036): 1.4762 ± 0.00073
- refractive index (308.15 K, Wavelength=633.2 nm, x1 = 0.7032): 1.48855 ± 0.00073
- refractive index (308.15 K, Wavelength=633.2 nm, x1 = 0.8024): 1.50145 ± 0.00075
- refractive index (308.15 K, Wavelength=633.2 nm, x1 = 0.9014): 1.51565 ± 0.00074
- refractive index (308.15 K, Wavelength=657.2 nm, x1 = 0.1014): 1.42224 ± 0.00072
- refractive index (308.15 K, Wavelength=657.2 nm, x1 = 0.2024): 1.4316 ± 0.00074
- refractive index (308.15 K, Wavelength=657.2 nm, x1 = 0.3032): 1.44127 ± 0.00075
- refractive index (308.15 K, Wavelength=657.2 nm, x1 = 0.4036): 1.45195 ± 0.00074
- refractive index (308.15 K, Wavelength=657.2 nm, x1 = 0.5038): 1.46385 ± 0.00073
- refractive index (308.15 K, Wavelength=657.2 nm, x1 = 0.6036): 1.47498 ± 0.00075
- refractive index (308.15 K, Wavelength=657.2 nm, x1 = 0.7032): 1.48694 ± 0.00075
- refractive index (308.15 K, Wavelength=657.2 nm, x1 = 0.8024): 1.50013 ± 0.00077
- refractive index (308.15 K, Wavelength=657.2 nm, x1 = 0.9014): 1.51517 ± 0.00073
- refractive index (313.15 K, Wavelength=436.1 nm, x1 = 0.1014): 1.43218 ± 0.00073
- refractive index (313.15 K, Wavelength=436.1 nm, x1 = 0.2024): 1.44283 ± 0.00074
- refractive index (313.15 K, Wavelength=436.1 nm, x1 = 0.3032): 1.45339 ± 0.00077
- refractive index (313.15 K, Wavelength=436.1 nm, x1 = 0.4036): 1.46524 ± 0.00077
- refractive index (313.15 K, Wavelength=436.1 nm, x1 = 0.5038): 1.47822 ± 0.00075
- refractive index (313.15 K, Wavelength=436.1 nm, x1 = 0.6036): 1.49111 ± 0.00078
- refractive index (313.15 K, Wavelength=436.1 nm, x1 = 0.7032): 1.50491 ± 0.00077
- refractive index (313.15 K, Wavelength=436.1 nm, x1 = 0.8024): 1.51939 ± 0.00078
- refractive index (313.15 K, Wavelength=436.1 nm, x1 = 0.9014): 1.5354 ± 0.00077
- refractive index (313.15 K, Wavelength=513.9 nm, x1 = 0.1014): 1.42576 ± 0.00072
- refractive index (313.15 K, Wavelength=513.9 nm, x1 = 0.2024): 1.43568 ± 0.00073
- refractive index (313.15 K, Wavelength=513.9 nm, x1 = 0.3032): 1.44614 ± 0.00073
- refractive index (313.15 K, Wavelength=513.9 nm, x1 = 0.4036): 1.45759 ± 0.00076
- refractive index (313.15 K, Wavelength=513.9 nm, x1 = 0.5038): 1.46885 ± 0.00075
- refractive index (313.15 K, Wavelength=513.9 nm, x1 = 0.6036): 1.48167 ± 0.00074
- refractive index (313.15 K, Wavelength=513.9 nm, x1 = 0.7032): 1.49443 ± 0.00076
- refractive index (313.15 K, Wavelength=513.9 nm, x1 = 0.8024): 1.50825 ± 0.00077
- refractive index (313.15 K, Wavelength=513.9 nm, x1 = 0.9014): 1.52307 ± 0.00075
- refractive index (313.15 K, Wavelength=589.3 nm, x1 = 0.1014): 1.42227 ± 0.00072
- refractive index (313.15 K, Wavelength=589.3 nm, x1 = 0.2024): 1.43177 ± 0.00074
- refractive index (313.15 K, Wavelength=589.3 nm, x1 = 0.3032): 1.44157 ± 0.00073
- refractive index (313.15 K, Wavelength=589.3 nm, x1 = 0.4036): 1.45242 ± 0.00076
